Here are results for 29 compounds from patent US10329302B2, “Bicyclic-fused heteroaryl or aryl compounds” (Pfizer Inc., priority 2014, dated 2019).

Assay [1] has as its target human IRAK4 FL (Full Length) (Homo sapiens (Human), UniProt Q9NWZ3). In words: IRAK4 Enzymatic DELFIA Assay, Protocol A. It is filed as biochemical.
The subject of assay [2] is R848-induced TNFα production by human peripheral blood mononuclear cells (PBMCs). Put plainly: R848 Induced TNFα in Human PBMC Assay. It is filed as cell-based.
Excerpt: This protocol is for R848-induced TNFα production by human peripheral blood mononuclear cells (PBMCs). […] The assay is used to assess cell-based potency of small molecule inhibitors of IRAK4 in the absence of serum.
The PBMCs in the interphase layer were collected and washed with PBS via centrifugation multiple times until the supernatant is clear. The purified PBMCs were re-suspended in RPMI (Roswell Park Memorial Institute) media (Sigma-Aldrich).
For the assay, a compound dilution plate containing a top concentration of 4 mM compound in DMSO was serially diluted 4-fold for 11 times. 250 nL of the compound dilution plate was spotted into a 384-well, flat bottom with lid, TC-treated, black with clear bottom, sterile, polystyrene plate (Corning Life Sciences).
10 μL of anti-TNFα antibody labeled with MSD SULFO-TAG at 50 μg/mL was added to each well and allowed to incubate overnight at 4° C.
Setting [3] is: human IRAK4 FL, 0.6 mM ATP (KM), read-out: IRAK4 DELFIA Protocol A IC50.
[4] abbreviates: Homo sapiens, PBMC, 3 h, read-out: R848-induced TNFa PBMC IC50 (nM).
Where [5] appears, read: human PBMC, absence of serum, 3 hours, read-out: R848-induced TNFa PBMC IC50.

Like-named read-outs stand apart in the source and are kept apart here.

Sequence of human IRAK4 FL (Full Length) (Q9NWZ3 whole entry): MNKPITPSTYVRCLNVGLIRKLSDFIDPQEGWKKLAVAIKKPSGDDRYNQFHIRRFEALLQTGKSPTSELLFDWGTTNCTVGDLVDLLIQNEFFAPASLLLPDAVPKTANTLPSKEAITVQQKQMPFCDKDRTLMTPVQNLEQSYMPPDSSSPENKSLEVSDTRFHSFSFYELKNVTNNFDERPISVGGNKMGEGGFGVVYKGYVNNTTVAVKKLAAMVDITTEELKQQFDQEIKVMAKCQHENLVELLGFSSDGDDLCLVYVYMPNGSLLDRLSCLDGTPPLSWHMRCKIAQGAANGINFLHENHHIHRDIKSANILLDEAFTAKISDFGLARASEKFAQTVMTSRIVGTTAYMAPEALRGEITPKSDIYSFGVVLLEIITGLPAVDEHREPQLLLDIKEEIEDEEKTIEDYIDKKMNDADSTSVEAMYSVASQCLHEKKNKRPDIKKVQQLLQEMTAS

Take `COc1cc2c(OC[C@@H]3C[C@@H](CC(F)(F)F)C(=O)N3)nccc2cc1C(N)=O` [Example 267, 7-methoxy-1-{[(2S,4S)-5-oxo-4-(2,2,2-trifluoroethyl)pyrrolidin-2-yl]methoxy}isoquinoline-6-carboxamide]: the figures for the IC50 in assay [1] (setting [3]) and in assay [2] (setting [4]) were 15 nM and 158 nM, respectively.
The corresponding values for `COc1cc2c(OC[C@@H]3C[C@](C)(F)C(=O)N3)ccnc2cc1C(N)=O` [Example 268, 4-{[(2S,4S)-4-fluoro-4-methyl-5-oxopyrrolidin-2-yl]methoxy}-6-methoxyquinoline-7-carboxamide] are 1.4 nM and 175 nM.
The corresponding values for `CC(C)Oc1cc2c(OC[C@@H]3C[C@](C)(F)C(=O)N3)ccnc2cc1C(N)=O` [Example 269, 4-{[(2S,4S)-4-fluoro-4-methyl-5-oxopyrrolidin-2-yl]methoxy}-6-(propan-2-yloxy)quinoline-7-carboxamide] are 0.6 nM and 104 nM.
On to `COc1cc2c(OC[C@H]3NC(=O)[C@@H](F)[C@H]3C)nccc2cc1C#N` [Example 272, 1-{[(2S,3S,4S)-4-fluoro-3-methyl-5-oxopyrrolidin-2-yl]methoxy}-7-methoxyisoquinoline-6-carbonitrile], for which the IC50 (commonly the concentration needed to halve the response being measured) worked out at 432 nM in assay [1] (setting [3]) and 2470 nM in assay [2] (setting [4]).
As for `COc1cc2c(OC[C@@H]3C[C@@](F)(CCF)C(=O)N3)ccnc2cc1C(N)=O` [Example 274, 4-{[(2S,4R)-4-fluoro-4-(2-fluoroethyl)-5-oxopyrrolidin-2-yl]methoxy}-6-methoxyquinoline-7-carboxamide], the IC50 in assay [1] (setting [3]) amounted to 2.2 nM; in assay [2] (setting [4]) it was 748 nM.
On to `COc1cc2c(OC[C@H]3C[C@@H](F)C(=O)N3)nccc2cc1C(N)=O` [Example 275, 1-{[(2R,4R)-4-fluoro-5-oxopyrrolidin-2-yl]methoxy}-7-methoxyisoquinoline-6-carboxamide], for which the IC50 in assay [1] (setting [3]) stood at 119 nM; in assay [2] (setting [4]), 5140 nM.
The corresponding values for `COc1cc2c(OC[C@@H]3C[C@@](F)(CCF)C(=O)N3)nccc2cc1C(N)=O` [Example 276, 1-{[(2S,4R)-4-fluoro-4-(2-fluoroethyl)-5-oxopyrrolidin-2-yl]methoxy}-7-methoxyisoquinoline-6-carboxamide] are 4.1 nM and 107 nM.
For `CCOc1cc2c(OC[C@@H]3C[C@](C)(F)C(=O)N3)nccc2cc1C(N)=O` [Example 278, 7-ethoxy-1-{[(2S,4S)-4-fluoro-4-methyl-5-oxopyrrolidin-2-yl]methoxy}isoquinoline-6-carboxamide], in that order: 8.5 nM and 299 nM.
For `CCOc1cc2c(OC[C@H]3NC(=O)[C@@H](F)[C@H]3C)ccnc2cc1C(N)=O` [Example 279, 6-ethoxy-4-{[(2S,3S,4S)-4-fluoro-3-methyl-5-oxopyrrolidin-2-yl]methoxy}quinoline-7-carboxamide], in that order: 1.2 nM and 212 nM.
For `C[C@@H]1[C@H](F)C(=O)N[C@@H]1COc1nccc2cc(C(N)=O)c(OC3CC3)cc12` [Example 281, 7-(cyclopropyloxy)-1-{[(2S,3S,4S)-4-fluoro-3-methyl-5-oxopyrrolidin-2-yl]methoxy}isoquinoline-6-carboxamide], the IC50 came to 11 nM in assay [1] (setting [3]) and 127 nM in assay [2] (setting [5]).
As for `CCOc1cc2c(OC[C@H]3NC(=O)[C@@H]4C[C@H]34)nccc2cc1C(N)=O` [Example 282, 7-ethoxy-1-{[(1S,2S,5R)-4-oxo-3-azabicyclo[3.1.0]hex-2-yl]methoxy}isoquinoline-6-carboxamide], the IC50 was 11 nM in assay [1] (setting [3]) and 191 nM in assay [2] (setting [4]).
Consider `COc1cc2c(OC[C@H]3NC(=O)[C@H]4[C@@H]3C4(Cl)Cl)nccc2cc1C(N)=O` [Example 311, 1-{[(1S,2S,5R)-6,6-dichloro-4-oxo-3-azabicyclo[3.1.0]hex-2-yl]methoxy}-7-methoxyisoquinoline-6-carboxamide], for which the IC50 in assay [1] (setting [3]) amounted to 229 nM; in assay [2] (setting [4]) it was 1080 nM.
For `CCC[C@@H]1CC(=O)N[C@@H]1COc1nccc2cc(C(N)=O)c(OC)cc12` [Example 312, 7-methoxy-1-{[(2S,3R)-5-oxo-3-propylpyrrolidin-2-yl]methoxy}isoquinoline-6-carboxamide], in that order: 1.3 nM and 26 nM.
The corresponding values for `COC[C@@H]1[C@H]2C(=O)N[C@H](COc3nccc4cc(C(N)=O)c(OC)cc34)[C@@H]12` [Example 313, 7-methoxy-1-{[(1S,2S,5S)-6-(methoxymethyl)-4-oxo-3-azabicyclo[3.1.0]hex-2-yl]methoxy}isoquinoline-6-carboxamide] are 210 nM and 1590 nM.
The corresponding values for `COC[C@H]1[C@H]2C(=O)N[C@H](COc3nccc4cc(C(N)=O)c(OC)cc34)[C@@H]12` [Example 314, 7-methoxy-1-{[(1S,2S,5S)-6-(methoxymethyl)-4-oxo-3-azabicyclo[3.1.0]hex-2-yl]methoxy}isoquinoline-6-carboxamide] are 1980 nM and 8360 nM.
In the case of `COc1cc2c(OC[C@H]3NC(=O)[C@@H]4[C@@H](F)[C@@H]43)nccc2cc1C(N)=O` [Example 315, 1-{[(1S,2S,5R)-6-fluoro-4-oxo-3-azabicyclo[3.1.0]hex-2-yl]methoxy}-7-methoxyisoquinoline-6-carboxamide], the IC50 in assay [1] (setting [3]) was determined as 1.5 nM; in assay [2] (setting [4]) it was 45 nM.
The corresponding values for `CC[C@@H]1[C@H](F)C(=O)N[C@@H]1COc1ccnc2cc(C(N)=O)c(OC)cc12` [Example 316, 4-{[(2S,3S,4S)-3-ethyl-4-fluoro-5-oxopyrrolidin-2-yl]methoxy}-6-methoxyquinoline-7-carboxamide] are 129 nM and 464 nM.
`COc1cc2c(OC[C@H]3NC(=O)[C@]4(F)C[C@H]34)nccc2cc1C(N)=O` [Example 317, 1-{[(1R,2S,5S)-5-fluoro-4-oxo-3-azabicyclo[3.1.0]hex-2-yl]methoxy}-7-methoxyisoquinoline-6-carboxamide]: the results for the IC50 in assay [1] and in assay [2] (setting [5]) were 0.6 nM and 22 nM, respectively.
In the case of `C#CCOc1cc2c(OC[C@@H]3CCC(=O)N3)nccc2cc1C(N)=O` [Example 318, 1-{[(2S)-5-oxopyrrolidin-2-yl]methoxy}-7-(prop-2-yn-1-yloxy)isoquinoline-6-carboxamide], the values for the IC50 in assay [1] (setting [3]) and in assay [2] (setting [4]) were 1940 nM and 17200 nM, respectively.
With `C=C=COc1cc2c(OC[C@@H]3CCC(=O)N3)nccc2cc1C(N)=O` [Example 319, 1-{[(2S)-5-oxopyrrolidin-2-yl]methoxy}-7-(propadienyloxy)isoquinoline-6-carboxamide], the IC50 came to 1950 nM in assay [1] (setting [3]) and 11000 nM in assay [2] (setting [4]).
The corresponding values for `COc1cc2c(OC[C@H]3NC(=O)[C@@H]4[C@@H](C(F)F)[C@@H]43)nccc2cc1C(N)=O` [Example 320, 1-{[(1R,2S,5S)-6-(difluoromethyl)-4-oxo-3-azabicyclo[3.1.0]hex-2-yl]methoxy}-7-methoxyisoquinoline-6-carboxamide] are 0.8 nM and 11 nM.
Turning to `COc1cc2c(OC[C@H]3NC(=O)[C@]4(F)CC[C@H]34)nccc2cc1C(N)=O` [Example 322, 1-{[(1R,2S,5S)-5-fluoro-4-oxo-3-azabicyclo[3.2.0]hept-2-yl]methoxy}-7-methoxyisoquinoline-6-carboxamide], the IC50 in assay [1] (setting [3]) was 6.1 nM; in assay [2] (setting [4]), 26 nM.
For `COc1cc2c(OC[C@H]3NC(=O)[C@@]4(F)[C@@H]3[C@@H]4C)ccnc2cc1C(N)=O` [Example 323, 4-{[(1R,2S,5S)-5-fluoro-6-methyl-4-oxo-3-azabicyclo[3.1.0]hex-2-yl]methoxy}-6-methoxyquinoline-7-carboxamide], in that order: 0.2 nM and 30 nM.
On to `COc1cc2c(OC[C@H]3NC(=O)[C@@H]4[C@@H](F)[C@@H]43)ccnc2cc1C(N)=O` [Example 324, 4-{[(1S,2S,5R)-6-fluoro-4-oxo-3-azabicyclo[3.1.0]hex-2-yl]methoxy}-6-methoxyquinoline-7-carboxamide], for which the figures for the IC50 in assay [1] (setting [3]) and in assay [2] (setting [4]) were 0.6 nM and 277 nM, respectively.
In the case of `COc1cc2c(OC[C@H]3NC(=O)[C@]4(F)C[C@H]34)ccnc2cc1C(N)=O` [Example 325, 4-{[(1R,2S,5S)-5-fluoro-4-oxo-3-azabicyclo[3.1.0]hex-2-yl]methoxy}-6-methoxyquinoline-7-carboxamide], the IC50 in assay [1] (setting [3]) turned out to be 0.4 nM; in assay [2] (setting [4]), 87 nM.
Regarding `COc1cc2c(OC[C@H]3NC(=O)[C@@H]4C[C@H]34)ccnc2cc1C(N)=O` [Example 326, 6-methoxy-4-{[(1S,2S,5R)-4-oxo-3-azabicyclo[3.1.0]hex-2-yl]methoxy}quinoline-7-carboxamide], the IC50 in assay [1] (setting [3]) came to 1.2 nM; in assay [2] (setting [4]), 1200 nM.
The corresponding values for `COc1cc2c(OC[C@H]3NC(=O)[C@@H]4[C@@H](CO)[C@@H]43)nccc2cc1C(N)=O` [Example 327, 1-{[(1S,2S,5S)-6-(hydroxymethyl)-4-oxo-3-azabicyclo[3.1.0]hex-2-yl]methoxy}-7-methoxyisoquinoline-6-carboxamide] are 20 nM and 3310 nM.
On to `C=C[C@H]1CC(=O)N[C@@H]1COc1nccc2cc(C(N)=O)c(OC)cc12` [Example 329, 1-{[(2S,3R)-3-ethenyl-5-oxopyrrolidin-2-yl]methoxy}-7-methoxyisoquinoline-6-carboxamide], for which the half-maximal inhibitory concentration (IC50) was determined as 13 nM in assay [1] (setting [3]) and 252 nM in assay [2] (setting [4]).
For `COc1cc2c(OC[C@H]3NC(=O)CC34CC4)nccc2cc1C(N)=O` [Example 330, 7-methoxy-1-{[(4S)-6-oxo-5-azaspiro[2.4]hept-4-yl]methoxy}isoquinoline-6-carboxamide], in that order: 14 nM and 134 nM.
